Results on 6 molecules are retold here after patent US20030004162A1, “Use of glycogen phosphorylase inhibitors” (priority 2000, published 2003).

In the case of `CCN1C(=O)C(C(=O)Nc2cccc(C(=O)Nc3ccc(I)cc3)c2)c2cc(C(C)=O)ccc21` (stereo not drawn) [Example 9, 5-Acetyl-1-ethyl-2-oxo-2,3-dihydro-1H-indole-3-carboxylic acid [3-(4-iodo-phenylcarbamoyl)-phenyl]-amide], the melting point was 205 to 210 °C.

For the molecule `O=C(N[C@@H](Cc1ccccc1)C(=O)N1CCOCC1)c1cc2cc(Cl)sc2[nH]1` [Example 19, 2-Chloro-6H-thieno[2,3-b]pyrrole-5-carboxylic acid [(1S)-benzyl-2-morpholin-4-yl-2-oxo-ethyl]-amide], the melting point lay in the range of 108 to 110 °C.

With `CCC(=O)c1ccc2c(c1)C(C(=O)Nc1cccc(C(=O)Nc3ccccc3)c1)C(=O)N2CC` (stereo not drawn) [Example 14, 1-Ethyl-2-oxo-5-propionyl-2,3-dihydro-1H-indole-3-carboxylic acid (3-phenylcarbamoyl-phenyl)-amide], the melting point fell in the range of 179 to 180 °C.

`CC(=O)c1ccc2c(c1)C(C(=O)Nc1cccc(C(=O)Nc3ccccc3)c1)C(=O)N2CC(F)(F)F` (stereo not drawn) [Example 16, 5-Acetyl-2-oxo-1-(2,2,2-trifluoro-ethyl)-2,3-dihydro-1H-indole-3-carboxylic acid (3-phenylcarbamoyl-phenyl)-amide] displayed a melting point of 197 to 203 °C.

Regarding `CCN1C(=O)C(C(=O)Nc2cccc(C(=O)Nc3ccccc3)c2)c2cc(C(C)=O)ccc21` (stereo not drawn) [Example 1, 5-Acetyl-1-ethyl-2-oxo-2,3-dihydro-1H-indole-3-carboxylic acid (3-phenylcarbamoyl-phenyl)-amide], the melting point was in the range of 173 to 175 °C.

Turning to `CC(=O)c1ccc2c(c1)C(C(=O)Nc1cccc(C(=O)Nc3ccccc3)c1)C(=O)N2C` (stereo not drawn) [Example 12, 5-Acetyl-1-methyl-2-oxo-2,3-dihydro-1H-indole-3-carboxylic acid (3-phenylcarbamoyl-phenyl)-amide], the melting point fell in the range of 178 to 179 °C.
